The text below walks through data of patent publication US20080166323A1, “Activators of Hexosamine Biosynthesis as Inhibitors of Injury Induced by Ischemia or Hermorrhagic Shock” (UAB RESEARCH FOUNDATION, priority 2004, published 2008).

The subject of this experiment is UDP-GlcNAc. In words: UDP-GlcNAc pools in isolated hearts. The conditions noted are these: 5 mM. The procedure: In the experiments above with isolated hearts, glucosamine was protective after only a ten minute pre-incubation. While not wishing to be bound by theory, the mechanism believed to be responsible for the protection is an increase in concentration of an intracellular metabolite of the HBP, which results in an increase in protein-associated O-GlcNAc. […] Increases at ten minutes were 47%. With respect to the second point, experiments were performed in which a monoclonal antibody specific for O-GlcNAc on proteins (CTD110) (Corner, et al, Anal Biochem (2001) 293(2):169-177) was used in an immunoblotting protocol. The specificity of this antibody for O-GlcNAc-containing epitopes is verified in each experiment by the inclusion of 10 mM GlcNAc along with the CTD110 antibody on parallel samples. These samples show no staining (data not shown). CTD110 immunoblots were performed on extracts from isolated hearts following a ten-minute perfusion with buffer or buffer containing 5 mM glucosamine (FIG. 8). […] Intriguingly, one group of newly appearing proteins has molecular masses near 70 kDa and another around 90 kDa. […] Another family of heat shock proteins, HSP-90, has a molecular mass near 90 kDa (Nollen and Morimoto, J Cell Sci (2002) 115(Pt 14):2809-2816). Thus, O-GlcNAc bearing proteins appear to be responsible for the protection.

Consider `N[C@H]1C(O)O[C@H](CO)[C@@H](O)[C@@H]1O` (some centres unmarked) [glucosamine], for which the “increase in UDP-GlcNAc pools” value reads like this: (30 minute incubation) “about 75%”; (ten minutes) 47%.
